Data reported in patent publication US20220205982A1 (CHILDREN'S HOSPITAL MEDICAL CENTER, priority 2019, published 2022).

Tests used:
plasma proteins = conditions: cited from earlier work
[1] = Clinical outcome and toxicity after melphalan full dose in RIC allogeneic HCT (engraftment, chimerism, mucositis, VOD, GVHD); assay type: in vivo, human
Experimental: Patients undergoing allogeneic HCT for non-malignant disorders with a uniform RIC regimen that included alemtuzumab, fludarabine and melphalan were enrolled in this study. Full standard dose of melphalan was set as follows: • 140 mg/m^2 in patients having a body weight >10 kg, • 4.7 mg/kg in patients having a body weight <10 kg, and • 70 mg/m^2 in one patient with a radio sensitivity disorder.
Blood samples were obtained for PK measurement after the administration of test dose and the full standard dose of melphalan. A total of 10 blood samples were obtained around each dose of melphalan: at baseline (5-10 min prior to start of the melphalan infusion of) and then approximately at 5 min, 15 min, 30 min, 45 min, 60 min, 2 hour, 2.5, 4, and 6 hours after the end of the melphalan infusion. Samples were collected on ice and transported to the institution's mass spectrometry laboratory for instant analysis by PS-MS/MS and conventional LC-MS/MS. Patient data collected for analysis included baseline organ function, presence of oral and gastrointestinal mucositis, renal and liver dysfunction including VOD, initial donor chimerism, graft rejection, and acute and chronic GVHD (aGVHD and cGVHD). The Common Terminology Criteria for Adverse Events (CTCAE) version 4.0 was used to evaluate adverse events. Acute and chronic GVHD were assessed by standardized published criteria. See, e.g., Glucksberg H, et al. Transplantation. 1974; 18:295-304 and Filipovich A H, et al. Biol Blood Marrow Transplant. 2005; 11:945-956. Interim analyses were completed after enrollment of 5 patients and 10 patients respectively to validate data following 25% and 50% of intended total patient enrollment. The AUC range that led to full donor chimerism without excess toxicity in majority of patients was selected to be the desired target AUC for full dose adjustment. In patients with baseline impaired organ function, personalized full dose melphalan was adjusted to limit toxicity if test dose PK predicted standard full dose AUC was higher than the desired target AUC range.

[2] = five patients, adjusted full dose
[3] = sixth patient, initial HCT, full dose 0.44 mg/kg
[4] = sixth patient, second HCT, full dose 1.2 mg/kg

## N[C@@H](Cc1ccc(N(CCCl)CCCl)cc1)C(=O)O [melphalan, 4-[Bis(2-chloroethyl)amino]-L-phenylalanine]
Plasma proteins
  interactions with immunoglobulins: negligible
Plasma proteins; plasma
  melphalan (covalently) irreversibly bound to plasma proteins: Approximately 30%
[1]; [2]
  donor chimerism at engraftment: ≥ 99%
  patients who developed VOD: None
  patients with grade 3 mucositis: all 5
[1]; four patients
  patients who developed GVHD: 15%
[1]; human, in vivo
  patients who developed grade 1 acute GVHD of skin: Two
  patients who developed limited chronic GVHD: two
[1]; [3]
  VOD of the liver or other excessive toxicity: did not develop VOD of the liver or other excessive toxicity
  graft outcome: developed secondary graft failure
  whole blood donor chimerism: 79%
[1]; [4]
  VOD of the liver or other excessive toxicity: without developing VOD of the liver or other excessive toxicity
  donor chimerism: 100%
[1]; standard dose melphalan
  patients who developed VOD of the liver: Two
  patients who developed grade 1 mucositis: one
  patients who developed grade 2 mucositis: 5 patients
  patients who developed grade 3 mucositis: Ten
  patients who developed grade 4 mucositis: one
  patients who developed primary graft failure: None
[1]; standard dose melphalan, all patients
  donor chimerism at engraftment: > 95%
